Values of other authors in patent US6184217A (Cephalon, Inc., priority 1997, dated 2001).

Key:
[1] = system: IL-2 production; settings: cited from earlier work
[2] = system: elongation of neurazone; settings: cited from earlier work
[3] = system: histamine release; settings: cited from earlier work
[4] = system: protein kinase C (PKC); settings: cited from earlier work
[5] = system: lethality resulting from endotoxin administration; settings: in vivo; cited from earlier work
[6] = system: smooth muscle MLCK; settings: cited from earlier work
[7] = system: smooth muscle contraction; settings: cited from earlier work
[8] = system: inflammation; settings: cited from earlier work

For COC(=O)C1(O)CC2OC1(C)n1c3ccccc3c3c4c(c5c6ccccc6n2c5c31)C(=O)NC4 (centres unmarked) [Compound K-252a], the “inhibiting IL-2 production” value [1] is listed as “inhibiting IL-2 production”, the “inhibiting elongation of neurazone” value [2] is listed as “inhibiting elongation of neurazone” and the inhibiting histamine release [3] is listed as “inhibiting histamine release”. For the same compound, the “inhibition of protein kinase C” value [4] was “strongly inhibits protein kinase C (PKC)”, the “lethality resulting from endotoxin administration” value [5] was “reduces the lethality resulting from endotoxin administration” and the “inhibiting smooth muscle MLCK” value [6] was “inhibiting smooth muscle MLCK”. The “inhibiting smooth muscle contraction” value [7] was “inhibiting smooth muscle contraction” and the anti-inflammatory action [8] was “anti-inflammatory action”.
